The values below come from patent US20020009713A1, “Methods for identifying modulators of neuronal growth” (priority 2000, published 2002).

Assay [1] deals with rat sympathetic neurons. Put plainly: MTT survival assay of cultured sympathetic neurons. Type of assay: cell-based. Here is the method: Neurons were plated at low density (approximately one ganglion/well) in Nunclon™ 4-well culture dishes (Gibco BRL, Burlington, Ontario, Canada), coated with either rat tail collagen or poly-D-lysine and laminin (both from Collaborative Biomedical Products, Bedford, Mass.). Culture medium was UltraCulture (BioWhittaker, Walkersville, Md.), supplemented with 3% rat serum (Harlan Bioproducts, Madison, Wis.), 2 mM glutamine, 100 U/ml penicillin, 100 μg/ml streptomycin (all from BioWhittaker), and for the first two days, 7 μM cytosine arabinoside (Sigma-Aldrich Canada Ltd., Oakville, Ontario, Canada).
(§1) NGF-dependent neurons were selected by culturing sympathetic neurons for five days in the presence of 50 ng/ml NGF. Neurons were washed three times for one hour each in neurotrophin-free media, and were then fed with media containing 10 ng/ml NGF alone, or various concentrations of NGF plus either 100 ng/ml BDNF, 10 μg/ml αBDNF, or a 1:100 dilution of antiserum containing the p75^NTR antibody, REX (Weskamp and Reichardt, Neuron 6: 649-663, 1991). Each condition was repeated in triplicate, and analysis of survival was performed 48 hours later by using nonradioactive cell proliferation (MTT) assays (Celltitre 96; Promega; Belliveau et al., J. Cell Biol. 136:375-388, 1997). Specifically, 50 μl of the MTT reagent was added to 500 μl media in each well, and incubated for two hours at 37° C. After aspiration of the MTT containing media, 100 μl of a 0.065N HCl/isopropanol mixture was added to each well to lyse the cells, and colorimetric analysis was performed using an ELISA reader. For rat sympathetic neurons, 10 ng/ml NGF represents 100% survival, therefore all other values were considered to be relative to 10 ng/ml NGF. For mouse neurons, 7.5 ng/ml NGF represents 100% survival, and was thus considered to be the 100% survival threshold for neuritogenesis experiments.

In assay [2] the test system is sympathetic neurons. Put plainly: Western blot / biochemical analysis of MAP2, phosphorylated-CamKII and phosphorylated-ERKs. Type of assay: cell-based, rat. The settings on record: for MAP2 levels: FIG. 27, NGF, KCl and kinase inhibitors. The protocol: (§2) Microtubules were isolated from cultured sympathetic neurons, and the relative amount of MAP2 present per microgram tubulin was determined using quantitative dot-blot analysis. […] Depolarization enhances MAP2 levels and CamKII phosphorylation in sympathetic neurons. We performed western blot analysis of sympathetic neurons treated with 10 ng/ml NGF, 50 mM KCl, or NGF+KCl. Lysates containing equal amounts of protein were separated by SDS-PAGE, transferred to nitrocellulose, and then probed for MAP2, phosphorylated-CamKII, phosphorylated-ERKs, or total ERK protein. KCl increases the amount of MAP2 present in sympathetic neurons, and enhances CamKII phosphorylation.

Assay [3] relates to sympathetic neurons. Put plainly: Quantitative dot-blot of MAP2 association with microtubules and microtubule stability. The settings on record: for amount of MAP2 bound to microtubules: two days. Type of assay: cell-based, rat. The protocol:
FIG. 22 is a schematic illustration showing immuno-dot blot analysis of MAP2 association and tubulin dynamics in SCG neurons. […]
as §2
(§3) Inhibition of either CamKII or MEK is sufficient to inhibit activitydependent dendrite formation. Immunocytochemical analysis for MAP2 on sympathetic neurons cultured in the presence of NGF+KCl with or without 10 um KN62, 75 um PD98059, 100 nM H-89 or 10 uM forskolin. […] In this study, microtubule stability was determined in sympathetic neurons maintained in NGF or NGF+KCl, and treated with selective pharmacological inhibitors.

Assay [4] has as its system sympathetic neurons. Put plainly: Activity-dependent dendrite formation, MAP2 immunocytochemistry and image analysis. The assay is classed as cell-based, rat. To be noted: for activity-dependent dendrite formation (MAP2): NGF+KCl, 10 um KN62, 75 um PD98059. Here is the method:
Dendritic growth can be measured as follows. Ninty-six-well plates are coated for […] with rat tail collagen (prepared in a dilution of 1% glacial acetic acid). After one hour, excess collagen is aspirated and allow to dry completely. SCG neurons are dissected, triturated and plated. Cells may also be plated onto 8-well chamber slides. Cells are fed after about three days and, after about five days, are switched to either 50 mM KCl or 10 ng/ml NGF+50 mM KCl for about three additional days. Neurons are washed briefly with PBS and then fixed for 10 minutes with 4% formaldehyde in PBS (freshly prepared). Excess fixative is removed by 3×5 min washes with PBS. Cells are stained for one hour at room temperature with the following antibodies with 3×5 min PBS washes after each incubation: primary antibody—mouse monoclonal IgG1 anti high molecular weight MAP2 (clone AP20, from Sigma), secondary antibody—donkey anti mouse CY3, minimum cross to mouse and rabbit (Jackson Immunochemicals). Cell are mounted and at least three fields of view are captured using an upright fluorescence microscope using 530 excitation/580 emission filters. For each individual neuron in a given field (minimum 250 neurons total), the distance of MAP2 positive staining from the perimeter of the cell body is measured. These measurements are performed and tabulated using NIH image. The tabulated data are then expressed as a population histogram, binning all the measured lengths into 2 μm bins. This analysis gives an overall measure of the extent of dendritic differentiation in the population.
Neuronal depolarization causes dendrite formation in cultured sympathetic neurons, and NGF enhances this dendritogenesis. FIGS. 19A-19C, 20A, 20B show immunocytochemical analysis of sympathetic neurons cultured in the presence of NGF, switched to 10 ng/ml NGF, 50 mM KCl, or 10 ng/ml NGF+50 mM KCl for two days, and then stained for the dendrite-specific protein MAP2. FIGS. 20A and 20B are high magnification views of fields similar to those shown at lower-magnification in FIGS. 19A and 19C, respectively. The MAP2-immunoreactive processes show morphology characteristic of dendrites. The amount of dendritic formation could be readily quantified.
as §3

For a further assay, the system named is ERK, Akt, CamKII. In words: Check of inhibitor selectivity for ERK, Akt and CamKII pathways. The assay is classed as cell-based.
Assay [5] concerns mouse sympathetic neurons. In words: MTT survival assay of mouse sympathetic neurons. Type of assay: cell-based. The protocol:
CD-1 mouse sympathetic neurons were cultured by a modification of the method used to prepare rat neurons. Mouse cultures were essentially prepared the same way, but were dissociated in UltraCulture medium rather than Hanks' balanced saline solution. 3% fetal bovine serum (Gibco) was used instead of rat serum, and 3.5 μM cytosine arabinoside was added to the culture medium on day one post-plating.
as §1, with “Each condition was repeated in triplicate, and analysis of survival was performed 48 hours later by using nonradioactive cell proliferation (MTT) assays (Celltitre 96; Promega; Belliveau et al., J.” left out, “For mouse neurons, 7.5 ng/ml NGF represents 100% survival, and was thus considered to be the 100% survival threshold for neuritogenesis experiments.” left out

The subject of another assay is TrkB. Put plainly: BDNF neutralization: TrkB tyrosine phosphorylation in TrkB-expressing NIH-3T3 cells. The settings on record: 50 ng/ml BDNF, five minutes. The assay is classed as cell-based. Here is the method:
To test the capacity of anti-BDNF to neutralize BDNF, TrkB-expressing NIH-3T3 cells were cultured in Dulbecco's modified Eagle medium. Briefly, cells were washed twice and incubated for one hour at 37° C. in buffer, followed by a 30 minute wash at 37° C. in a phosphate-free buffer. Treatment consisted of incubating cells for five minutes with either 50 ng/ml BDNF (Promega) or with BDNF preabsorbed for four hours at 4° C. with increasing concentrations of the BDNF antibody (5-40 μg/ml). In addition, TrkB-3T3 cells were treated with medium only, or medium plus 40 μg/ml nonimmune chicken IgY. Following these treatments, cells were lysed, immunoprecipitated with anti-pan Trk (Hempstead et al., Neuron 9:883-896, 1992), and the immunoprecipitates analyzed for TrkB activation by Western blot analysis with phosphotyrosine antibody 4G10 (Upstate Biotechnology Inc., Lake Placid, N.Y.).

Assay [6] concerns murine sympathetic neurons. In words: Neuritogenesis assay in wild type and p75NTR-/- murine sympathetic neurons. Type of assay: cell-based, mouse. The settings on record: 7.5 ng/ml NGF plus 100 ng/ml BDNF.
Assay [7] deals with rat sympathetic neurons. Put plainly: In vitro neuritogenesis assay (neuritic process density). Type of assay: cell-based. To be noted: 100 ng/ml BDNF in 10 ng/ml NGF, two days, six experiments. Here is the method: Regulation of neuronal growth was analyzed by an in vitro neuritogenesis assay. Postnatal day one rat sympathetic neurons were cultured in 50 ng/ml NGF for two to three days in order to upregulate p75^NTR, whose increased expression in response to NGF occurs independently of neuronal survival. Following a one hour wash in neurotrophin-free medium, cultures were maintained for an additional two days in 10 ng/ml NGF plus or minus 100 ng/ml BDNF. Fields in sister cultures containing a similar number of neuronal cell bodies were then photographed, and neuritic process density was determined as described below. […]
Quantitative analysis was performed by using common statistics applied to random sets of lines and determining the number of intersection points per unit area. […] Low density fields were photographed, and the number of visible intersections and bifurcations of cell processes per unit area was considered to be a quantitative measure of process density. Since the number of neurites is a direct function of the number of neurons, however, the number of intersections and bifurcations counted per unit area was normalized to the number of cell bodies in that same area of interest. […] Results are expressed as the mean density plus or minus the standard error of the mean.

Setting [8] is: 10 ng/ml NGF added to 50 mM KCl.

On to `O=S(=O)(NCCNC/C=C/c1ccc(Br)cc1)c1cccc2cnccc12` [H-89], for which the “survival of sympathetic neurons (MTT)” value in the assay with rat sympathetic neurons [1] (cultured in NGF or NGF+KCl) was “None of these compounds perturbs”.
Turning to `[Cl-].[K+]` [KCl], in the assay on sympathetic neurons [2] (50 mM KCl), the CamKII phosphorylation result is “enhances” and the “amount of MAP2 present in sympathetic neurons” value was “increases”. The “amount of MAP2 bound to microtubules” value in the assay with sympathetic neurons [3] (50 mM KCl) was “greatly enhances”.
For the molecule `CN([C@@H](Cc1ccc(OS(=O)(=O)c2cccc3cnccc23)cc1)C(=O)N1CCN(c2ccccc2)CC1)S(=O)(=O)c1cccc2cnccc12` [KN-62], the MAP2 levels result in the assay with sympathetic neurons [2] is reported as “reduce”. Moreover, in the assay with sympathetic neurons [3] (neurons maintained in NGF or NGF+KCl), the “KCl-induced increase in microtubule stability” value was “completely inhibit”. In the assay on sympathetic neurons [4], the “activity-dependent dendrite formation (MAP2)” value was “completely abolished”. Also, in the assay on ERK, Akt, CamKII, the “ERK or Akt activation” value is “do not affect”. Further, the “survival of sympathetic neurons (MTT)” value is “None of these compounds perturbs” in the assay with rat sympathetic neurons [1] (cultured in NGF or NGF+KCl) and “dramatically reduces” in the assay on rat sympathetic neurons [1] (cultured only in 50 mM KCl).
`COc1cccc(-c2cc(=O)c3ccccc3o2)c1N` [PD98059]: in the assay on sympathetic neurons [2], the MAP2 levels result is “reduce”. For the same molecule, the “activity-dependent dendrite formation (MAP2)” value in the assay with sympathetic neurons [4] is recorded as “completely abolished”. The CamKII activity result in the assay on ERK, Akt, CamKII was “does not affect”.

B1: NGF: nerve growth factor purified from mouse salivary glands (protein, UniProt P01139 122-241, looked up)
Beta-nerve growth factor: SSTHPVFHMGEFSVCDSVSVWVGDKTTATDIKGKEVTVLAEVNINNSVFRQYFFETKCRASNPVESGCRGIDSKHWNSYCTTTHTFVKALTTDEKQAAWRFIRIDTACVCVLSRKATRRG
As to B1, in the assay with sympathetic neurons [2] (10 ng/ml NGF compared with 50 mM KCl), the ERK phosphorylation result is on record as “more potent stimulator”. Besides, in the assay on sympathetic neurons [3] (setting [8]), the “amount of MAP2 bound to microtubules” value is listed as “enhances this effect to some degree”. Moreover, the KCl-dependent dendritic growth entry with sympathetic neurons [4] (setting [8]) is on record as “greatly enhances”. In the assay with sympathetic neurons [4] (10 ng/ml NGF on its own), the “dendritic growth (MAP2-positive dendrite length)” value is reported as “little ability to cause dendritic growth”. In assay [5] (5, 7.5 and 10 ng/ml NGF, three days), the “mouse sympathetic neuron survival (MTT)” value is listed as “maximal”.

B2: BDNF: brain-derived neurotrophic factor; recombinant human BDNF (protein, UniProt P23560 19-247, looked up)
Neurotrophic factor BDNF …: APMKEANIRGQGGLAYPGVRTHGTLESVNGPKAGSRGLTSLADTFEHVIEELLDEDQKVRPNEENNKDADLYTSRVMLSSQVPLEPPLLFLLEEYKNYLDAANMSMRVRRHSDPARRGELSVCDSISEWVTAADKKTAVDMSGGTVTVLEKVPVSKGQLKQYFYETKCNPMGYTKEGCRGIDKRHWNSQCRTTQSYVRALTMDSKKRIGWRFIRIDTSCVCTLTIKRGR
As for B2, in the assay with TrkB, the “tyrosine phosphorylation of TrkB” value is “robust increase”. Besides, the effect on growth result in [6] (p75NTR-/- neurons) is on record as “no effect”. The “average decrease of neuronal growth” value in assay [6] (wild type mouse cultures) is 35%. Also, the “average decrease of process network density” value with rat sympathetic neurons [7] was determined as 40%. In the assay with rat sympathetic neurons [1] (100 ng/ml BDNF in 10 ng/ml NGF, two days), the “sympathetic neuron survival (MTT)” value is “no effect”. The “mouse sympathetic neuron survival (MTT)” value in assay [5] (7.5 or 10 ng/ml NGF plus 100 ng/ml BDNF) is recorded as “did not affect”.
